{"source": "patent US20170333591A9", "about": "“ABSORBENT ARTICLE COMPRISING MALODOR REDUCTION COMPOSITIONS” (The Procter & Gamble Company, priority 2014, published 2017)", "test": "Log of liquid dish neat product liquid-air partition coefficient", "assay_type": "physicochemical", "conditions": "for Log of liquid dish neat product liquid-air partition coefficient (Comment Code): code letters K/L of the Comment Code", "key": {"[1]": {"conditions": "code letter within the Comment Code cell"}}, "data": [{"smiles": "CC1C(C)(C)C2=C(C3OC(C)(C)OC3CC2)C1(C)C", "note": "(centres unmarked) [Material 23]", "values": [{"measurement": "Comment Code: Log of liquid dish neat product liquid-air partition coefficient", "value": "K (Log of liquid dish neat product liquid-air partition coefficient greater than or equal to 7)"}, {"measurement": "Log of liquid dish neat product liquid-air partition coefficient (Comment Code K/L)", "setting": "[1]", "value": "K (Log of liquid dish neat product liquid-air partition coefficient greater than or equal to 7)"}]}, {"smiles": "CC1(O)CCC2=C(CCCC2(C)C)C1", "note": "(centres unmarked) [Material 676]", "values": [{"measurement": "Log of liquid dish neat product liquid-air partition coefficient (Comment Code)", "value": "K (Log of liquid dish neat product liquid-air partition coefficient greater than or equal to 7)"}]}, {"smiles": "CCOC(=O)OC1CCCCC1C(C)(C)C", "note": "(centres unmarked) [Material 355]", "values": [{"measurement": "Comment Code: Log of liquid dish neat product liquid-air partition coefficient", "value": "K (Log of liquid dish neat product liquid-air partition coefficient greater than or equal to 7)"}]}, {"smiles": "CC1CC(C)(C)OC(Cc2ccccc2)O1", "note": "(centres unmarked) [Material 1003]", "values": [{"measurement": "Log of liquid dish neat product liquid-air partition coefficient (Comment Code)", "value": "K (Log of liquid dish neat product liquid-air partition coefficient greater than or equal to 7)"}]}, {"smiles": "CC1=CC2(C=CC(C)O2)C(C(C)C)CC1", "note": "(centres unmarked) [Material 68]", "values": [{"measurement": "Log of liquid dish neat product liquid-air partition coefficient (Comment Code K/L)", "setting": "[1]", "value": "K (Log of liquid dish neat product liquid-air partition coefficient greater than or equal to 7)"}]}, {"smiles": "CC/C=C\\CCOC(=O)C/C=C\\CC", "note": "[Material 534]", "values": [{"measurement": "Log of liquid dish neat product liquid-air partition coefficient (Comment Code K/L)", "setting": "[1]", "value": "K (Log of liquid dish neat product liquid-air partition coefficient greater than or equal to 7)"}]}, {"smiles": "O=C(O)CCc1ccccc1", "note": "[Material 255]", "values": [{"measurement": "Comment Code: Log of liquid dish neat product liquid-air partition coefficient", "value": "K (Log of liquid dish neat product liquid-air partition coefficient greater than or equal to 7)"}]}, {"smiles": "CC(C)=CCCC(C)CCCC(C)C=O", "note": "(centres unmarked) [Material 757]", "values": [{"measurement": "Log of liquid dish neat product liquid-air partition coefficient (Comment Code)", "value": "K (Log of liquid dish neat product liquid-air partition coefficient greater than or equal to 7)"}]}, {"smiles": "C[C@@H]1CCC=C2CC[C@@H](C(C)(C)O)C[C@]21C", "note": "[Material 1107]", "values": [{"measurement": "Comment Code: Log of liquid dish neat product liquid-air partition coefficient", "value": "K (Log of liquid dish neat product liquid-air partition coefficient greater than or equal to 7)"}, {"measurement": "Log of liquid dish neat product liquid-air partition coefficient (Comment Code)", "value": "K (Log of liquid dish neat product liquid-air partition coefficient greater than or equal to 7)"}]}, {"smiles": "CC(C)C1OCCC2(CC3CCC2(C)C3(C)C)O1", "note": "(centres unmarked) [Material 659]", "values": [{"measurement": "Comment Code: Log of liquid dish neat product liquid-air partition coefficient", "value": "K (Log of liquid dish neat product liquid-air partition coefficient greater than or equal to 7)"}, {"measurement": "Log of liquid dish neat product liquid-air partition coefficient (Comment Code)", "value": "K (Log of liquid dish neat product liquid-air partition coefficient greater than or equal to 7)"}]}, {"smiles": "CCOC(=O)C=Cc1ccccc1", "note": "[Material 400]", "values": [{"measurement": "Comment Code: Log of liquid dish neat product liquid-air partition coefficient", "value": "K (Log of liquid dish neat product liquid-air partition coefficient greater than or equal to 7)"}]}, {"smiles": "CC1COCc2cc3c(cc21)C(C)(C)C(C)C3(C)C", "note": "(centres unmarked) [Material 335]", "values": [{"measurement": "Comment Code: Log of liquid dish neat product liquid-air partition coefficient", "value": "K (Log of liquid dish neat product liquid-air partition coefficient greater than or equal to 7)"}, {"measurement": "Log of liquid dish neat product liquid-air partition coefficient (Comment Code K/L)", "setting": "[1]", "value": "K (Log of liquid dish neat product liquid-air partition coefficient greater than or equal to 7)"}]}, {"smiles": "c1ccc(Oc2ccccc2)cc1", "note": "[Material 428]", "values": [{"measurement": "Log of liquid dish neat product liquid-air partition coefficient (Comment Code K/L)", "setting": "[1]", "value": "K (Log of liquid dish neat product liquid-air partition coefficient greater than or equal to 7)"}]}, {"smiles": "COCCOC(C)OCc1ccccc1", "note": "(centres unmarked) [Material 768]", "values": [{"measurement": "Log of liquid dish neat product liquid-air partition coefficient (Comment Code)", "value": "K (Log of liquid dish neat product liquid-air partition coefficient greater than or equal to 7)"}]}, {"smiles": "c1ccc2c(c1)CC1COCOC21", "note": "(centres unmarked) [Material 247]", "values": [{"measurement": "Log of liquid dish neat product liquid-air partition coefficient (Comment Code K/L)", "setting": "[1]", "value": "K (Log of liquid dish neat product liquid-air partition coefficient greater than or equal to 7)"}]}, {"smiles": "CCCCCCCCC=CC#N", "note": "[Material 827]", "values": [{"measurement": "Log of liquid dish neat product liquid-air partition coefficient (Comment Code)", "value": "K (Log of liquid dish neat product liquid-air partition coefficient greater than or equal to 7)"}]}, {"smiles": "CCC(=O)OC1CC2CCC1(C)C2(C)C", "note": "(centres unmarked) [Material 228]", "values": [{"measurement": "Log of liquid dish neat product liquid-air partition coefficient (Comment Code K/L)", "setting": "[1]", "value": "K (Log of liquid dish neat product liquid-air partition coefficient greater than or equal to 7)"}]}, {"smiles": "C/C=C(\\C)C(=O)OCCc1ccccc1", "note": "[Material 960]", "values": [{"measurement": "Comment Code: Log of liquid dish neat product liquid-air partition coefficient", "value": "K (Log of liquid dish neat product liquid-air partition coefficient greater than or equal to 7)"}]}, {"smiles": "CC(C)c1ccc(CO)cc1", "note": "[Material 491]", "values": [{"measurement": "Log of liquid dish neat product liquid-air partition coefficient (Comment Code K/L)", "setting": "[1]", "value": "K (Log of liquid dish neat product liquid-air partition coefficient greater than or equal to 7)"}]}, {"smiles": "CC(=CCCC1(C)C2CC3C(C2)C31C)CO", "note": "(centres unmarked) [Material 694]", "values": [{"measurement": "Comment Code: Log of liquid dish neat product liquid-air partition coefficient", "value": "K (Log of liquid dish neat product liquid-air partition coefficient greater than or equal to 7)"}, {"measurement": "Log of liquid dish neat product liquid-air partition coefficient (Comment Code)", "value": "K (Log of liquid dish neat product liquid-air partition coefficient greater than or equal to 7)"}]}, {"smiles": "CCC(C)(O)/C=C/C=C(C)C", "note": "(centres unmarked) [Material 81]", "values": [{"measurement": "Comment Code: Log of liquid dish neat product liquid-air partition coefficient", "value": "K (Log of liquid dish neat product liquid-air partition coefficient greater than or equal to 7)"}]}, {"smiles": "CCCC(O)CCC1C(C)CCCC1(C)C", "note": "(centres unmarked) [Material 1063]", "values": [{"measurement": "Log of liquid dish neat product liquid-air partition coefficient (Comment Code)", "value": "K (Log of liquid dish neat product liquid-air partition coefficient greater than or equal to 7)"}]}, {"smiles": "CC=CC(=O)OC(C)C1CCCCC1", "note": "(centres unmarked) [Material 475]", "values": [{"measurement": "Log of liquid dish neat product liquid-air partition coefficient (Comment Code K/L)", "setting": "[1]", "value": "K (Log of liquid dish neat product liquid-air partition coefficient greater than or equal to 7)"}]}, {"smiles": "CC1=CCOC(c2ccccc2)C1", "note": "(centres unmarked) [Material 1016]", "values": [{"measurement": "Log of liquid dish neat product liquid-air partition coefficient (Comment Code)", "value": "K (Log of liquid dish neat product liquid-air partition coefficient greater than or equal to 7)"}]}, {"smiles": "CC/C=C\\CCC1=CCCC1=O", "note": "[Material 146]", "values": [{"measurement": "Log of liquid dish neat product liquid-air partition coefficient (Comment Code K/L)", "setting": "[1]", "value": "K (Log of liquid dish neat product liquid-air partition coefficient greater than or equal to 7)"}]}, {"smiles": "CC1=CCCC2(C)CCC3CC12OC3(C)C", "note": "(centres unmarked) [Material 726]", "values": [{"measurement": "Comment Code: Log of liquid dish neat product liquid-air partition coefficient", "value": "K (Log of liquid dish neat product liquid-air partition coefficient greater than or equal to 7)"}, {"measurement": "Log of liquid dish neat product liquid-air partition coefficient (Comment Code)", "value": "K (Log of liquid dish neat product liquid-air partition coefficient greater than or equal to 7)"}]}, {"smiles": "COC1(C)CCC23CC1C(C)(C)C2CCC3C", "note": "(centres unmarked) [Material 565]", "values": [{"measurement": "Comment Code: Log of liquid dish neat product liquid-air partition coefficient", "value": "K (Log of liquid dish neat product liquid-air partition coefficient greater than or equal to 7)"}, {"measurement": "Log of liquid dish neat product liquid-air partition coefficient (Comment Code)", "value": "K (Log of liquid dish neat product liquid-air partition coefficient greater than or equal to 7)"}]}, {"smiles": "O=C1CCCCCCCCCCCCCCO1", "note": "[Material 370]", "values": [{"measurement": "Log of liquid dish neat product liquid-air partition coefficient (Comment Code K/L)", "setting": "[1]", "value": "K (Log of liquid dish neat product liquid-air partition coefficient greater than or equal to 7)"}]}, {"smiles": "CC(=O)OC1CC2CC1C1CC=CC21", "note": "(centres unmarked) [Material 281]", "values": [{"measurement": "Comment Code: Log of liquid dish neat product liquid-air partition coefficient", "value": "K (Log of liquid dish neat product liquid-air partition coefficient greater than or equal to 7)"}, {"measurement": "Log of liquid dish neat product liquid-air partition coefficient (Comment Code K/L)", "setting": "[1]", "value": "K (Log of liquid dish neat product liquid-air partition coefficient greater than or equal to 7)"}]}, {"smiles": "CCCCCCCC1(C)OCC(C)O1", "note": "(centres unmarked) [Material 838]", "values": [{"measurement": "Comment Code: Log of liquid dish neat product liquid-air partition coefficient", "value": "K (Log of liquid dish neat product liquid-air partition coefficient greater than or equal to 7)"}]}, {"smiles": "CC1(C)C2CCC3(C2)C1C(=O)CCC3(C)C", "note": "(centres unmarked) [Material 1149]", "values": [{"measurement": "Comment Code: Log of liquid dish neat product liquid-air partition coefficient", "value": "K (Log of liquid dish neat product liquid-air partition coefficient greater than or equal to 7)"}, {"measurement": "Log of liquid dish neat product liquid-air partition coefficient (Comment Code K/L)", "setting": "Comment Code letters K and/or L", "value": "K (Log of liquid dish neat product liquid-air partition coefficient greater than or equal to 7)"}]}, {"smiles": "CCCCCCCCCC=CC=O", "note": "[Material 806]", "values": [{"measurement": "Log of liquid dish neat product liquid-air partition coefficient (Comment Code)", "value": "K (Log of liquid dish neat product liquid-air partition coefficient greater than or equal to 7)"}]}]}
